# From PMC11064044, “Synthesis and Characterization of Piano-Stool Ruthenium(II)–Arene Complexes of Isatin Schiff Bases: Cytotoxicity and DNA Intercalation” (ACS Omega, 2024)
# Assays:
# [1] = test system: HEPG2 (hepatocellular carcinoma); test: MTT cell viability assay, HEPG2; format: cell-based, human
# Description: (§1) HEPG2 (ATCC-HB-8065), MCF-7 (ATCC-CRL-3435), PC-3 (ATCC-CRL-1435), and HEK-293 (ATCC-CRL-1573) cells were purchased from American Type Culture Collection (ATCC). Human cancer cells and embryonic kidney cells were maintained in Roswell Park Memorial Institute (RPMI) media supplemented with 10% fetal bovine serum and 1% penicillin–streptomycin solution in a 37 °C incubator with 5% CO2.
# (§2) The cell viability was assessed by using an MTT assay. MTT was purchased from Sigma and prepared in phosphate-buffered saline (5 mM). […] After incubation, 20 μL of MTT solution was added to each well and incubated at 37 °C for an additional 4h. Finally, the MTT solution was removed, and 200 μL of DMSO was added to each well. The absorbance was measured at 590 nm by using a spectrometer (Tecan). The IC50 values were calculated from the MTT viability data using the software CalcuSyn (Biosoft).
# [2] = test system: MCF-7 (human breast cancer); test: MTT cell viability assay, MCF-7; format: cell-based
# Description: as §1, §2
# [3] = test system: PC-3 (human prostate cancer); test: MTT cell viability assay, PC-3; format: cell-based; conditions: 72 h
# Description: as §1, §2
# [4] = test system: HEK-293 (human embryonic kidney); test: MTT cell viability assay, HEK-293; format: cell-based
# Description: as §1, §2
Compound,"IC50 ([1]; Homo sapiens, HepG2, 72 h) [µM]","IC50 ([2]; Homo sapiens, MCF7, 72 h) [µM]",IC50 ([3]; Homo sapiens) [µM],"IC50 ([4]; Homo sapiens, HEK293, 72 h) [µM]",IC50 ([1]; 72 h) [µM],IC50 ([2]; 72 h) [µM],IC50 [3] [µM],IC50 ([4]; 72 h) [µM]
CCCCN1C(=O)/C(=N/c2ccccc2)c2ccccc21 [3b],43 ± 1.8,52.6 ± 3.1,58.1 ± 3.3,61.9 ± 0.6,,,,
CCCCN1C(=O)/C(=N/c2c(C)cc(C)cc2C)c2ccccc21 [3c],3.9 ± 0.3,27.2 ± 2.4,58.4 ± 2,26.9 ± 1.6,,,,
"N.N.[Cl][Pt][Cl] [cisplatin, reference compound]",,,,,22.2 ± 0.5,20.8 ± 2.3,18.5 ± 0.7,10.7 ± 0.8
"CCCCN1C(=O)C(=O)c2ccccc21 [compound 2, N-butylisatin]",226.5 ± 1.5,100 ± 2.4,58.2 ± 3.2,127 ± 2.8,,,,
